These results are taken from patent publication US20070254928A1, “Use of Roflumilast for the Prophylaxis or Treatment of Emphysema” (Altana Pharma AG, priority 2004, published 2007).

The structures appear in SMILES notation. Marks after values point to notes of the source that are not given here.

Common to all, as to format: in vivo
For one data set, the system named is C57BI/6J mice. In words: Chronic model of cigarette smoke exposure in mice: mortality. Particulars: all groups, ROFLUMILAST 1 or 5 mg/kg p.o., 7 months. On the procedure: (§1) Eighty 6 week old male mice of the strain C57BI/6J (supplied Harlan-Italy, Udine, Italy) were used in this study. The mice were housed in groups of 7 to 10 in macrolon cages. Room temperature was kept at 22° to 24° C.; and relative humidity at 40 to 50%; food and water were supplied ad libitum. All animal experimentation was approved by the Local Ethical Committee of the University of Siena.
(§2) ROFLUMILAST was given p.o. by gavage in a volume of 10 μl suspension/g body weight 60 min prior to either air or smoke exposure.
The methodology for chronic smoke exposure has been previously described in detail (Cavarra et al; Am J Respir Crit Care Med 2001; Vol 164, pp 886-890). Briefly, mice were exposed to either the smoke of 3 cigarettes/day (commercial Virginia filter cigarettes: 12 mg of tar and 0.9 mg of nicotine), 5 days/week or to room air (controls) for 7 months, in especially designed macrolon cages (Tecniplast, Buguggiate, Italy). These cages (42.5×26.6×19 cm) are equipped with a disposable filter cover which enables the air to flow out of the cages and thus to be continuously renewed. The smoke was produced by the burning of a cigarette and was introduced into the chamber with the airflow generated by a mechanical ventilator (7025 Rodent Ventilator, Ugo Basile, Biological Research Instruments, Comerio, Italy), at a rate of 33 ml /min. […]

The test system of data set [1] is cigarette smoke induced emphysema in mice (C57BI/6J). As to the kind of experiment: Chronic model of cigarette smoke exposure in mice: lung desmosine content by HPLC. Particulars: for Desmosine (lung content): 7 months, mean ± SEM. As to the method: (§3) Effects of ROFLUMILAST in an Chronic Model of Cigarette Smoke Exposure in Mice
as §1, §2
(§4) The methodology for chronic smoke exposure has been previously described in detail (Cavarra et al; Am J Respir Crit Care Med 2001; Vol 164, pp 886-890). Briefly, mice were exposed to either the smoke of 3 cigarettes/day (commercial Virginia filter cigarettes: 12 mg of tar and 0.9 mg of nicotine), 5 days/week or to room air (controls) for 7 months, in especially designed macrolon cages (Tecniplast, Buguggiate, Italy). These cages (42.5×26.6×19 cm) are equipped with a disposable filter cover which enables the air to flow out of the cages and thus to be continuously renewed. The smoke was produced by the burning of a cigarette and was introduced into the chamber with the airflow generated by a mechanical ventilator (7025 Rodent Ventilator, Ugo Basile, Biological Research Instruments, Comerio, Italy), at a rate of 33 ml /min. A second mechanical ventilator was used to provide room air for dilution (1:8) of the smoke-stream. With this methodology the mice were exposed to the smoke originated by three cigarettes once a day for the duration of 90 min. In a pilot study, the efficiency of the smoke delivery system was tested in 12 mice by measuring blood HbCO by co-oxymetry.
Lung desmosine concentration was determined by High Pressure Liquid Chromatography (HPLC) essentially according to Cumiskey et al. (J Chromatogr B 1995, Vol 668, pp 199-207). Briefly, lung samples were homogenized in 5% TCA (1:9, w:v) and centrifuged for 10 min. at 4000 g at 4° C. The pellet was then washed twice with distilled water and hydrolyzed for 16 h at 130° C. in 6 N HCl.
After hydrolysis, the samples were centrifuged for 10 min at 2000 g and filtered through a FP 030/3 0.2 μm filter (Schleicher & Schuell). Aliquots (0.5 ml) of samples were desiccated under liquid nitrogen and then suspended in 0.6 ml 0.1 M sodium phosphate, pH 3.73.
The HPLC apparatus consisted of a single pump (Pro-Star 210, Varian) delivering isocratic mobile phase, of which 80% was 0.1 M dibasic sodium phosphate adjusted to pH 3.75 with phosphoric acid; the remaining 20% was acetonitrile. Sodium dodecyl sulphate (SDS) was added to a final concentration of 10 mM. The pH was re-adjusted after the addition of acetonitrile and SDS. The flow rate was 0.8 ml/min through a C18 (reverse phase MSORV 100A, Varian). Injection volumes of 100 μl of test samples diluted in 0.1 M sodium phosphate buffer, pH 3.75 was used to detect desmosine concentration. Detection of desmosine was by absorbance at 275 nm. Peak purity was checked with a Pro-Star 330 photodiode array detector (Varian) scanning from 200 to 400 nm. Isodesmosine eluted at approx. 9 min, and desmosine approx. at 12 min. Peak height, appopriate external calibration curves and internal standards were used to quantitate desmosine in unknown samples. Desmosine standards were from Elastin Co. (USA).
(§5) All data were analyzed using GraphPad Prism software (GraphPad Software, San Diego, Calif., USA). For each parameter the values of the individual animals were averaged and the SEM was calculated. The significance of the differences was calculated using parametric one-way analysis of variance (ANOVA) with subsequent Bonferroni's multiple comparison post-test for selected pairs. A p value of <0.05 was considered significant.

Data set [2] shares this test system. In words: Chronic model of cigarette smoke exposure in mice: morphometric assessment of emphysema (Lm, ISA). Particulars: for Lm (mean linear intercept) / ISA (internal surface area of the lung): 7 months, mean ± SEM; for ISA (internal surface area of the lung): ISA=4VL/Lm; for Inhibition of emphysema formation (Lm and ISA), in words: smoke-exposed. As to the method: as §3, §1, §2, §4
Seven months after chronic exposure to room air or cigarette smoke (24 h after last exposure), 5 to 12 animals of each group, were anesthetized with ether and then exsanguinated by severing the abdominal aorta. The lungs were excised and fixed intratracheally with buffered formalin (5%) at a constant pressure of 20 cm H2O for at least 24 hours. Post-fixation lung volume (VL) was measured by water displacement. All lungs were then dehydrated, cleared in toluene and embedded under vacuum in paraffin. Two 7-μm transversal sections were made and stained with hematoxylin-eosin and/or periodic acid-Schiff (PAS). Two pathologists blinded to the exposure protocol carried out the morphological and morphometrical evaluation.
Morphometric assessment of emphysema included determination of the average inter-alveolar distance (mean linear intercept: Lm) and internal surface area estimated by the Lm method at postfixation lung volume. For the determination of the Lm for each pair of lungs, 40 histological fields were evaluated both vertically and horizontally. Examination of these numbers of fields meant that practically the entire lung area was evaluated. Internal surface area of the lung (ISA) was calculated by according to the formula: ISA=4VL/Lm.
as §5

Setting [3] is: air exposure, ROFLUMILAST 5 mg/kg p.o.
Where [4] appears, read: chronic model of cigarette smoke induced emphysema in mice, dose not given.
The mark [5] stands for this setting: cigarette smoke exposure, ROFLUMILAST 1 mg/kg p.o.
Setting [6] is: cigarette smoke exposure, ROFLUMILAST 5 mg/kg p.o.

`O=C(Nc1c(Cl)cncc1Cl)c1ccc(OC(F)F)c(OCC2CC2)c1` [ROFLUMILAST, 3-cyclopropylmethoxy-4-difluoro-methoxy-N-(3,5-dichloropyrid-4-yl)benzamide]: in the data set on C57BI/6J mice, the Mortality entry was “No animal died”. Besides, the “Desmosine (lung content)” value in data set [1] (setting [3]) is listed as 2.91 ± 0.08 μg/lung; in data set [1] (setting [5]) it was 2.45 ± 0.11 μg/lung; in data set [1] (setting [6]), 2.98 ± 0.10 μg/lung. In data set [1] (setting [4]), the “Effect on drop of the desmosine content in the lung, in words” value is on record as “can prevent the drop of the desmosine content in the lung”. For the same molecule, the “Lung desmosine content compared to air-exposed, in words” value in data set [1] (smoke-exposed, ROFLUMILAST 1 mg/kg) was “significantly lower lung desmosine content”. In addition, the “Lung desmosine content compared to air-exposure, in words” value in data set [1] (smoke-exposed, ROFLUMILAST 5 mg/kg) is reported as “Unchanged lung desmosine content”. In addition, the “Lm (mean linear intercept)” value worked out at 33.48 ± 0.36 μm in data set [2] (setting [3]), 40.79 ± 0.87 μm in data set [2] (setting [5]) and 34.28 ± 0.31 μm in data set [2] (setting [6]). For the same molecule, the entries for the “ISA (internal surface area of the lung)” value in data set [2] (setting [3]), in data set [2] (setting [5]) and in data set [2] (setting [6]) were 1342.70 ± 23.39## cm^2, 1079.78 ± 35.61** cm^2 and 1292.21 ± 29.63# cm^2, respectively. Moreover, the “Effect on increase of Lm, in words” value in data set [2] (setting [4]) was “can prevent the increase of Lm”. Moreover, the “Inhibition of emphysema formation (Lm and ISA), in words” value in data set [2] (ROFLUMILAST 1 mg/kg) is “unable to inhibit emphysema formation”; in data set [2] (ROFLUMILAST 5 mg/kg), “gross inhibition of emphysema formation”.
